Experiments:
Format in all cases: functional
[1] = test system: Bursaphelenchus xylophilus; assay: Nematicidal activity against Bursaphelenchus xylophilus at 200 ug/ml after 24 hrs
[2] = test system: Bursaphelenchus xylophilus; assay: Nematicidal activity against Bursaphelenchus xylophilus at 100 ug/ml after 48 hrs
[3] = test system: Bursaphelenchus xylophilus; assay: Nematicidal activity against Bursaphelenchus xylophilus at 100 ug/ml after 24 hrs
[4] = test system: Bursaphelenchus xylophilus; assay: Nematicidal activity against Bursaphelenchus xylophilus at 200 ug/ml after 48 hrs

| SMILES | Activity [1] | Activity [2] | Activity [3] | Activity [4] |
| --- | --- | --- | --- | --- |
| Oc1ccc2c3c1[C@@H](O)[C@H]1O[C@H]1[C@]31Oc3cccc4c3[C@](O2)(O1)[C@H](O)C[C@@H]4O | 54.8% | 35.5% | 25.6% | 62.3% |
| O=C1CC[C@]23Oc4ccc(O)c5c4[C@](Oc4cccc1c42)(O3)[C@@H]1O[C@@H]1[C@@H]5O | 47.9% | 44.1% | 33.7% | 60.7% |
| O=C1c2c(O)ccc3c2[C@@]2(Oc4cccc5c4[C@](O3)(O2)[C@H](O)C[C@@H]5O)[C@@H]2O[C@H]12 | 52.3% | 39.6% | 27.8% | 64.2% |
| O=C1CC[C@H](O)c2cc(O)cc(O)c21 | 51.2% | 46.7% | 23.7% | 57.3% |
| O=C1C[C@@H](O)[C@]23Oc4ccc(O)c5c4[C@](Oc4cccc1c42)(O3)[C@@H]1O[C@@H]1[C@@H]5O | 56.7% | 66.4% | 45.2% | 70.3% |
| O=C1CCC(O)c2cccc(O)c21 (racemic) [4,8-DIHYDROXY-1-TETRALONE] | 53.4% | 43.8% | 34.7% | 58.3% |
| CO[C@@H]1CC(=O)c2cccc3c2[C@@]12Oc1ccc(O)c4c1[C@](O3)(O2)[C@@H]1O[C@@H]1[C@@H]4O [PREUSSOMERIN C] | 59.3% | 67.4% | 50.2% | 78.6% |
| O=C1C=C[C@]23Oc4ccc(O)c5c4[C@](Oc4cccc1c42)(O3)[C@@H]1O[C@@H]1[C@@H]5O [PREUSSOMERIN D] | 60.4% | 76.5% | 53.8% | 83.7% |
